Assay results: patent publication US12377042B2, “Botanical and bacterial extracts displaying retinol-like activity” (KENVUE BRANDS LLC, priority 2018, dated 2025)

Legend:
[1] = target: T1, Retinoic acid receptor gamma (RARg) (Homo sapiens, UniProt P13631); assay: RARg Transactivation Assay (GeneBLAzer RAR gamma-UAS-bla HEK 293T); format: cell-based; settings: solution in DMSO at different concentrations
T1 construct: the UAS-driven beta-lactamase is the reporter
T1 sequence (P13631 185-419 limits assumed): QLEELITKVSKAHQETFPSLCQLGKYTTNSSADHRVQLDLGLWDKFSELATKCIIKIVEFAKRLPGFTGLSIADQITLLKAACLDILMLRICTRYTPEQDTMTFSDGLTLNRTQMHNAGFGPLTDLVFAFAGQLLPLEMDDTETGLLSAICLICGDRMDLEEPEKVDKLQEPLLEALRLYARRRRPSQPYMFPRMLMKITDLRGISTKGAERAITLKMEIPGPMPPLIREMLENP
Description: Retinoic acid receptor gamma (RARg) agonism was assessed using the Invitrogen GeneBLAzer RAR gamma-UAS-bla HEK 293T cell-based assay, in which activation of RARg results in transcription of beta lactamase. When a FRET probe is added to cells, FRET is observed. However, upon receptor activation and subsequent beta lactamase expression, the probe is cleaved and FRET is no longer observed.
Cells in culture are washed with PBS, trypsinized and resuspended in growth media, counted using ViCell cell counter; the appropriate amount of cells is then spun down and resuspended in assay buffer (at 0.5E6 cells/ml). 15 k cells in 30 ul assay buffer is plated per well in Greiner black walled, clear flat bottom plates using Combi dispenser. The last two columns are filled with assay buffer. […]
After 18-20 h of incubation, 8 ul FRET dye (Invitrogen K1096) is added using Tempest dispenser, after which plates are spun down at 800 rpm for 2 min without brakes and incubated in the dark at room temperature for 2 h. The bottom of the plates is cleaned using anti-static cleaning wipe before measuring fluorescence using BMG Pherastar plate reader (using FRET module, 10 reads, gain for both channels=1000, Ex 409, Em1 460, Em2 530). […]

[2] = tested on: human epidermal skin equivalents; assay: Oleic acid induced hyperkeratinization in human epidermal skin equivalents; format: cell-based; settings: for % Hyperkeratinization (normalized by 10% OA), Average / Stratum Corneum Thickness (% of Total Epidermis), Average: topical
Description: Human epidermal skin equivalents from MatTek Company (Ashland, MA, USA) were used. The skin equivalents were topically treated with 10% oleic acid (OA) either without or with the addition of 1 μM 3-(4-farnesyloxyphenyl)-propionic acid in a proprietary MatTek medium (pheno-red free, hydrocortisone free) for 48 hours. The epidermal skin equivalents were collected at the end of treatment and fixed in 10% neutral buffered formalin solution (Thermo Fisher Scientific, Hudson, NH, USA), dehydrated and embedded in paraffin. Tissue sections (5 μm thick) were cut and were stained with hematoxylin-eosin. Three pictures per section were taken for each skin equivalent. The thickness of the stratum cornea or epidermis was measured using ImagePro Plus (Media Cybernetics Inc., Rockville, MD, USA). The stratum corneum thickness was expressed as % of total epidermis (=thickness of stratum corneum divided by the sum of thicknesses of stratum corneum and epidermis). The % hyperkeratinizatin was normalized by the thickness of 10% OA-treated tissues. Statistical analysis was performed using two-tailed two-sample equal variance Student t test (Microsoft Office Excel 2007; Microsoft, Redmond, WA, USA).

[3] = 1 uM together with 10% oleic acid, 48 hours

Compound | EC50 [1] [nM] | % Hyperkeratinization (normalized by 10% OA), Average [2, 3] [%] | Stratum Corneum Thickness (% of Total Epidermis), Average [2, 3] [%] | oleic-acid (OA) induced hyperkeratinization (in words) ([2]; 1 uM with 10% oleic acid, 48 hours, p<0.05) | Stratum Corneum Thickness (% of Total Epidermis), Average ([2]; 10% oleic acid alone, 48 hours) [%] | % Hyperkeratinization (normalized by 10% OA), Average ([2]; 10% oleic acid alone, 48 hours (reference)) [%]
CC(C)=CCCC(C)=CCCC(C)=CCOc1ccc(CCC(=O)O)cc1 [3-(4-farnesyloxyphenyl)-propionic acid] | 594 | 76 | 38 | significantly (p<0.05) reduced | – | –
CCCCCCCC/C=C\CCCCCCCC(=O)O [oleic acid, reference compound] | – | – | – | – | 50 | 100
